Test results from the supplement of paper PMC13380429.
± gives the standard deviation of the averaged measurements.

Key:
Conditions in all cases: 72 h
[1] = test system: Calu-3; assay: cell viability relative to DMSO; higher = less toxic
[2] = test system: U2OS; assay: as above
[3] = test system: Vero E6; assay: as above
[4] = test system: HepG2; assay: as above
[5] = test system: Caco-2; assay: as above
[6] = test system: Calu-3; assay: drug sensitivity score (DSS) for viability; higher = more toxic; extreme values may be limits of the assay
[7] = test system: U2OS; assay: as above
[8] = test system: Vero E6; assay: as above
[9] = test system: HepG2; assay: as above
[10] = test system: Caco-2; assay: as above
[11] = test system: Calu-3; assay: relative viability EC50 (midpoint between 100% and the lowest measured viability); higher = less toxic
[12] = test system: U2OS; assay: as above
[13] = test system: Vero E6; assay: as above
[14] = test system: HepG2; assay: as above
[15] = test system: Caco-2; assay: as above

Structure (SMILES)	cell viability ([1]; 1 nM) [%]	cell viability ([1]; 10 nM) [%]	cell viability ([1]; 100 nM) [%]	cell viability ([1]; 1000 nM) [%]	cell viability ([1]; 10000 nM) [%]	cell viability ([2]; 1 nM) [%]	cell viability ([2]; 10 nM) [%]	cell viability ([2]; 100 nM) [%]	cell viability ([2]; 1000 nM) [%]	cell viability ([2]; 10000 nM) [%]	cell viability ([3]; 1 nM) [%]	cell viability ([3]; 10 nM) [%]	cell viability ([3]; 100 nM) [%]	cell viability ([3]; 1000 nM) [%]	cell viability ([3]; 10000 nM) [%]	cell viability ([4]; 1 nM) [%]	cell viability ([4]; 10 nM) [%]	cell viability ([4]; 100 nM) [%]	cell viability ([4]; 1000 nM) [%]	cell viability ([4]; 10000 nM) [%]	cell viability ([5]; 1 nM) [%]	cell viability ([5]; 10 nM) [%]	cell viability ([5]; 100 nM) [%]	cell viability ([5]; 1000 nM) [%]	cell viability ([5]; 10000 nM) [%]	drug sensitivity score [6]	drug sensitivity score [7]	drug sensitivity score [8]	drug sensitivity score [9]	drug sensitivity score [10]	relative viability EC50 [11] [µM]	relative viability EC50 [12] [µM]	relative viability EC50 [13] [µM]	relative viability EC50 [14] [µM]	relative viability EC50 [15] [µM]
O=C1CC[C@@](c2ccccc2)(C2CCN(Cc3ccc(I)cc3)CC2)C(=O)N1 [iododexetimide]	97.8	110	102	107	104	98.8	95.5	94.3	100	90.4	98.7	100	102	100	93	107	96.4	92.5	87.5	83.6	89	104	98.1	97.7	93.9	0	0	0	1.4	0	> 10	> 10	> 10	> 10	> 10
CC(C)[N+](C)(CCC(C(N)=O)(c1ccccc1)c1ccccc1)C(C)C [isopropamide-iodide]	97.2	90.1	96.2	94.1	87.1	104	99.8	103	98.4	100	102	104	101	99.4	98.6	98.1	108	93.5	100	102	102	94.2	98.1	93.9	101	0	0	0	0	0	> 10	> 10	> 10	> 10	> 10
O[C@@H]1CO[C@H]2[C@@H]1OC[C@@H]2O [isosorbide]	97.3	97.6	106	101	111	96.8	98.9	95	98.8	94.4	96.7	100	97.5	92.9	99.8	93.4	92.5	106	99.6	105	94.8	93.7	91.4	102	99.8	0	0	0	0	0	> 10	> 10	> 10	> 10	> 10
O=C(O)c1ccccc1C(=O)Nc1ccc(-c2ccccc2)cc1 [kartogenin]	98.2	101	105	102	103	103	104	100	98.6	100	103	99	105	97.7	98.1	98.4	98.4	92.7	97.3	106	99.2	90.6	89.7	94.2	93.7	0	0	0	0	0	> 10	> 10	> 10	> 10	> 10
O=C(c1ccccc1)c1ccc2n1CCC2C(=O)O (stereo not given) [ketorolac]	95.7	109	110	99.5	104	99.5	105	104	96.6	92.9	102	104	108	105	96.1	102	107	113	97.7	87.2	103	123	110	98.3	91.8	0	0	0	0.2	0	> 10	> 10	> 10	> 10	> 10
CC(=O)NCCc1c(Cc2ccccc2)[nH]c2ccccc12 [luzindole]	98.6	102	105	104	96.2	102	103	100	104	96.9	95.9	99	95.1	94.6	97.4	103	99.9	104	95.5	110	97.4	105	106	103	102	0	0	0	0	0	> 10	> 10	> 10	> 10	> 10
Cc1cccc(C(C)c2c[nH]cn2)c1C (stereo not given) [medetomidine]	104 ± 2.5	98.5 ± 14	103 ± 2.5	105 ± 11	95.2 ± 0.57	100 ± 2.2	96.1 ± 0.71	102 ± 5.5	94.5 ± 0.42	97.6 ± 6.1	95.3 ± 0.57	97.5 ± 0.99	92.5 ± 3.8	99.75 ± 0.071	101 ± 3.2	92.5 ± 2.5	106 ± 1.3	101 ± 2.7	102 ± 9.6	111.4 ± 0.14	97.85 ± 0.35	88 ± 1.9	99.2 ± 5.2	100 ± 3.1	99.1 ± 1.6	0	0	0	0	0	> 10	> 10	> 10	> 10	> 10
